Results published in ChEMBL document CHEMBL5244219, “Recent developments of quinolone-based derivatives and their activities against Escherichia coli” (Eur J Med Chem, 2018).
In brackets after ≈: the same amount, converted by molar mass.

test system: Escherichia coli; experiment: Antibacterial activity against Escherichia coli assessed as bacterial growth inhibition; format: functional; conditions: not given

SMILES	MIC
CC1Cn2cc(C(=O)O)c(=O)c3cc(F)c(-n4ccnc4)c(c32)S1 (stereo not drawn)	0.12 µg/mL (≈ 0.347 µM)
CC(=O)c1cc2ccccc2n(/N=C/c2cccc([N+](=O)[O-])c2)c1=O	1.6 µg/mL (≈ 4.77 µM)
CC1Cn2cc(C(=O)O)c(=O)c3cc(F)c(N4CCN(C=O)CC4)c(c32)S1 (stereo not drawn)	0.12 µg/mL (≈ 0.307 µM)
CC1(C)S[C@@H]2[C@H](NC(=O)[C@H](N)c3ccc(O)cc3)C(=O)N2[C@H]1C(=O)O [AMOXICILLIN]	2 µg/mL (≈ 5.47 µM)
CC1Cn2cc(C(=O)O)c(=O)c3cc(F)c(Cl)c(c32)S1 (stereo not drawn)	0.12 µg/mL (≈ 0.382 µM)
O=C(O)c1cn2c3c(c(Cl)c(F)cc3c1=O)SC(c1ccccc1F)C2 (stereo not drawn)	0.12 µg/mL (≈ 0.305 µM)
CC(=O)c1cc2cc(Cl)ccc2n(/N=C/c2ccc(O)cc2)c1=O	1.6 µg/mL (≈ 4.7 µM)
CC1Cn2cc(C(=O)O)c(=O)c3cc(F)c(N4CCN(c5ccccn5)CC4)c(c32)S1 (stereo not drawn)	0.12 µg/mL (≈ 0.272 µM)
O=C(O)c1cn2c3c(c(Cl)c(F)cc3c1=O)SC(c1ccc(F)cc1)C2 (stereo not drawn)	0.12 µg/mL (≈ 0.305 µM)
CC1Cn2cc(C(=O)O)c(=O)c3cc(F)c(N4CCNCC4)c(c32)S1 (stereo not drawn)	0.25 µg/mL (≈ 0.688 µM)
O=C(O)c1cn2c3c(c(N4CCNCC4)c(F)cc3c1=O)SC(c1ccc(F)cc1)C2 (stereo not drawn)	0.12 µg/mL (≈ 0.271 µM)
O=C(O)c1cn([C@@H]2C[C@@H]2F)c2cc(N3CCN(Cn4nc(-c5ccccc5O)n(-c5ccccc5)c4=S)CC3)c(F)cc2c1=O	≤ 0.04 µg/mL
CC1Cn2cc(C(=O)O)c(=O)c3cc(F)c(N4CCN(Cc5ccccc5C(F)(F)F)CC4)c(c32)S1 (stereo not drawn)	0.12 µg/mL (≈ 0.23 µM)
CN1CCN(c2c(F)cc3c(=O)c(C(=O)O)cn4c3c2SC(c2ccc(F)cc2)C4)CC1 (stereo not drawn)	0.12 µg/mL (≈ 0.262 µM)
COc1cc(/C=N/n2c(=O)c(C(C)=O)cc3cc([N+](=O)[O-])ccc32)cc(OC)c1OC	1.6 µg/mL (≈ 3.76 µM)
CC1Cn2cc(C(=O)O)c(=O)c3cc(F)c(N4CCCC4)c(c32)S1 (stereo not drawn)	0.12 µg/mL (≈ 0.344 µM)
COc1cc(OC)cc(-c2nn(CN3CCN(c4cc5c(cc4F)c(=O)c(C(=O)O)cn5[C@@H]4C[C@@H]4F)CC3)c(=S)n2-c2ccccc2)c1	≤ 0.04 µg/mL
O=C(O)c1cn([C@@H]2C[C@@H]2F)c2cc(N3CCN(Cn4nc(-c5ccc6ccccc6c5)n(Cc5ccccc5)c4=S)CC3)c(F)cc2c1=O	≤ 0.04 µg/mL
COc1cc(-c2nn(CN3CCN(c4cc5c(cc4F)c(=O)c(C(=O)O)cn5[C@@H]4C[C@@H]4F)CC3)c(=S)n2-c2ccccc2)cc(OC)c1OC	≤ 0.04 µg/mL
O=C(O)c1cn([C@@H]2C[C@@H]2F)c2cc(N3CCN(Cn4nc(-c5ccncc5)n(-c5ccccc5)c4=S)CC3)c(F)cc2c1=O	≤ 0.04 µg/mL
C[C@H]1COc2c(N3CCC4(CCN(C)C4)C3)c(F)cc3c(=O)c(C(=O)O)cn1c23 (stereo partly drawn)	0.025 µg/mL (≈ 0.0623 µM)
CC1Cn2cc(C(=O)O)c(=O)c3cc(F)c(N4CCN(Cc5cccc(F)c5)CC4)c(c32)S1 (stereo not drawn)	0.12 µg/mL (≈ 0.254 µM)

More lines, now with the values ahead:

MIC	SMILES
0.25 µg/mL (≈ 0.688 µM)	CN1CCN(c2c(F)cc3c(=O)c(C(=O)O)cn4c3c2SCC4)CC1 [RUFLOXACIN]
0.12 µg/mL (≈ 0.296 µM)	CCNCC1CCN(c2c(F)cc3c(=O)c(C(=O)O)cn4c3c2SC(C)C4)C1 (stereo not drawn)
1.6 µg/mL (≈ 3.86 µM)	COc1cc(/C=N/n2c(=O)c(C(C)=O)cc3cc(Cl)ccc32)cc(OC)c1OC
0.12 µg/mL (≈ 0.307 µM)	CC1Cn2cc(C(=O)O)c(=O)c3cc(F)c(N4C(C)CNCC4C)c(c32)S1 (stereo not drawn)
1.6 µg/mL (≈ 4.72 µM)	CC(=O)c1cc2cc(Cl)ccc2n(/N=C/c2ccc(C)cc2)c1=O
0.12 µg/mL (≈ 0.305 µM)	O=C(O)c1cn2c3c(c(Cl)c(F)cc3c1=O)SC(c1cccc(F)c1)C2 (stereo not drawn)
0.12 µg/mL (≈ 0.23 µM)	CC1Cn2cc(C(=O)O)c(=O)c3cc(F)c(N4CCN(S(=O)(=O)c5ccc(F)cc5)CC4)c(c32)S1 (stereo not drawn)
≤ 0.04 µg/mL	COc1ccc(-c2nn(CN3CCN(c4cc5c(cc4F)c(=O)c(C(=O)O)cn5[C@@H]4C[C@@H]4F)CC3)c(=S)n2-c2ccccc2)cc1OC
1.6 µg/mL (≈ 4.33 µM)	CC(=O)c1cc2cc(Cl)ccc2n(/N=C/c2ccccc2[N+](=O)[O-])c1=O
0.12 µg/mL (≈ 0.245 µM)	CC1Cn2cc(C(=O)O)c(=O)c3cc(F)c(N4CCN(Cc5ccc(F)cc5F)CC4)c(c32)S1 (stereo not drawn)
0.12 µg/mL (≈ 0.262 µM)	CC1Cn2cc(C(=O)O)c(=O)c3cc(F)c(N4CCN(c5ccc(F)cc5)CC4)c(c32)S1 (stereo not drawn)
0.12 µg/mL (≈ 0.318 µM)	CC1Cn2cc(C(=O)O)c(=O)c3cc(F)c(N4CCCNCC4)c(c32)S1 (stereo not drawn)
≤ 0.04 µg/mL	COc1cc(OC)cc(-c2nn(CN3CCN(c4cc5c(cc4F)c(=O)c(C(=O)O)cn5[C@@H]4C[C@@H]4F)CC3)c(=S)n2Cc2ccccc2)c1
1.6 µg/mL (≈ 4.21 µM)	CC(=O)c1cc2cc([N+](=O)[O-])ccc2n(/N=C/c2cccc([N+](=O)[O-])c2)c1=O
0.12 µg/mL (≈ 0.318 µM)	CC1Cn2cc(C(=O)O)c(=O)c3cc(F)c(N4CCN(C)CC4)c(c32)S1 (stereo not drawn)
1.6 µg/mL (≈ 5.22 µM)	CC(=O)c1cc2ccccc2n(/N=C/c2ccc(O)cc2)c1=O
1.6 µg/mL (≈ 4.93 µM)	CC(=O)c1cc2ccccc2n(/N=C/c2ccccc2Cl)c1=O
1.6 µg/mL (≈ 4.77 µM)	CC(=O)c1cc2ccccc2n(/N=C/c2ccccc2[N+](=O)[O-])c1=O
1.6 µg/mL (≈ 5.26 µM)	CC(=O)c1cc2ccccc2n(/N=C/c2ccc(C)cc2)c1=O

test system: Escherichia coli; experiment: Antibacterial activity against Escherichia coli assessed as bacterial growth inhibition measured after 18 to 24 hrs by broth microdilution method; format: functional; conditions: time 18-24 hrs

SMILES	MIC
NC1CCN(c2cc3c(cc2F)c(=O)c(C(=O)O)cn3-c2ccc(O)cc2)C1 (stereo not drawn)	< 0.05 µg/mL
C[C@H]1CN(c2cc3c(cc2F)c(=O)c(C(=O)O)cn3-c2ccc(O)cc2)C[C@H]1N	< 0.05 µg/mL
N[C@H]1CN(c2nc3c(cc2F)c(=O)c(C(=O)O)cn3-c2ccc(O)cc2)CC12CC2	< 0.05 µg/mL
C[C@H]1CN(c2nc3c(cc2F)c(=O)c(C(=O)O)cn3-c2ccc(O)cc2)C[C@H]1N	< 0.05 µg/mL
CN1CCN(c2nc3c(cc2F)c(=O)c(C(=O)O)cn3-c2ccc(O)cc2)CC1	< 0.05 µg/mL
C[C@@H](N)[C@H]1CCN(c2nc3c(cc2F)c(=O)c(C(=O)O)cn3-c2ccc(O)cc2)C1	< 0.05 µg/mL
N[C@@H]1CCC[C@@H]2CN(c3nc4c(cc3F)c(=O)c(C(=O)O)cn4-c3ccc(O)cc3)C[C@@H]21	< 0.05 µg/mL
CN1CCC2CN(c3cc4c(cc3F)c(=O)c(C(=O)O)cn4-c3ccc(O)cc3)CC21 (stereo not drawn)	< 0.05 µg/mL
COc1c(N2C[C@@H](N)[C@@H](C)C2)c(F)cc2c(=O)c(C(=O)O)cn(-c3ccc(O)cc3)c12	< 0.05 µg/mL
C[C@H](N)[C@H]1CCN(c2cc3c(cc2F)c(=O)c(C(=O)O)cn3-c2ccc(O)cc2)C1	< 0.05 µg/mL
C[C@@H](N)[C@H]1CCN(c2cc3c(cc2F)c(=O)c(C(=O)O)cn3-c2ccc(O)cc2)C1	< 0.05 µg/mL
COc1c(N2C[C@@H](C)N[C@@H](C)C2)c(F)cc2c(=O)c(C(=O)O)cn(-c3ccc(O)cc3)c12	< 0.05 µg/mL
COc1c(N2CCNCC2)c(F)cc2c(=O)c(C(=O)O)cn(-c3ccc(O)cc3)c12	< 0.05 µg/mL
O=C(O)c1cn(-c2ccc(O)cc2)c2nc(N3CCNCC3)c(F)cc2c1=O	< 0.05 µg/mL
COc1c(N2C[C@@H]3[C@@H](N)[C@@H]3C2)c(F)cc2c(=O)c(C(=O)O)cn(-c3ccc(O)cc3)c12	< 0.05 µg/mL
C[C@@H]1CN(c2cc3c(cc2F)c(=O)c(C(=O)O)cn3-c2ccc(O)cc2)C[C@H]1N	< 0.05 µg/mL
N[C@@H]1CCC[C@@H]2CN(c3cc4c(cc3F)c(=O)c(C(=O)O)cn4-c3ccc(O)cc3)C[C@@H]21	< 0.05 µg/mL
N[C@H]1CN(c2cc3c(cc2F)c(=O)c(C(=O)O)cn3-c2ccc(O)cc2)CC12CC2	< 0.05 µg/mL
COc1c(N2CC3CCN(C)C3C2)c(F)cc2c(=O)c(C(=O)O)cn(-c3ccc(O)cc3)c12 (stereo not drawn)	< 0.05 µg/mL
C[C@@H]1CN(c2cc3c(cc2F)c(=O)c(C(=O)O)cn3-c2ccc(O)cc2)C[C@H](C)N1	< 0.05 µg/mL
COc1c(N2CC3CCCNC3C2)c(F)cc2c(=O)c(C(=O)O)cn(-c3ccc(O)cc3)c12 (stereo not drawn)	< 0.05 µg/mL
C[C@H](N)[C@@H]1CCN(c2cc3c(cc2F)c(=O)c(C(=O)O)cn3-c2ccc(O)cc2)C1	< 0.05 µg/mL
COc1c(N2CCC(N)C2)c(F)cc2c(=O)c(C(=O)O)cn(-c3ccc(O)cc3)c12 (stereo not drawn)	< 0.05 µg/mL
N[C@@H]1[C@H]2CN(c3cc4c(cc3F)c(=O)c(C(=O)O)cn4-c3ccc(O)cc3)C[C@@H]12	< 0.05 µg/mL

Further lines, results first:

MIC	SMILES
< 0.05 µg/mL	COc1c(N2CCC(CN)C2)c(F)cc2c(=O)c(C(=O)O)cn(-c3ccc(O)cc3)c12 (stereo not drawn)
< 0.05 µg/mL	C[C@H](N)[C@@H]1CCN(c2nc3c(cc2F)c(=O)c(C(=O)O)cn3-c2ccc(O)cc2)C1
< 0.05 µg/mL	O=C(O)c1cn(-c2ccc(O)cc2)c2nc(N3CC4CC3CN4)c(F)cc2c1=O (stereo not drawn)
< 0.05 µg/mL	O=C(O)c1cn(-c2ccc(O)cc2)c2cc(N3CC4CC3CN4)c(F)cc2c1=O (stereo not drawn)
< 0.05 µg/mL	NC1CCN(c2nc3c(cc2F)c(=O)c(C(=O)O)cn3-c2ccc(O)cc2)C1 (stereo not drawn)
< 0.05 µg/mL	C[C@@H]1CN(c2nc3c(cc2F)c(=O)c(C(=O)O)cn3-c2ccc(O)cc2)C[C@H](C)N1
< 0.05 µg/mL	COc1c(N2CC3CC2CN3)c(F)cc2c(=O)c(C(=O)O)cn(-c3ccc(O)cc3)c12 (stereo not drawn)
< 0.05 µg/mL	NCC1CCN(c2cc3c(cc2F)c(=O)c(C(=O)O)cn3-c2ccc(O)cc2)C1 (stereo not drawn)
< 0.05 µg/mL	COc1c(N2C[C@@H](N)C3(CC3)C2)c(F)cc2c(=O)c(C(=O)O)cn(-c3ccc(O)cc3)c12
< 0.05 µg/mL	COc1c(N2CCN(C)CC2)c(F)cc2c(=O)c(C(=O)O)cn(-c3ccc(O)cc3)c12
< 0.05 µg/mL	N[C@@H]1CN(c2nc3c(cc2F)c(=O)c(C(=O)O)cn3-c2ccc(O)cc2)CC12CC2
< 0.05 µg/mL	C[C@@H]1CN(c2nc3c(cc2F)c(=O)c(C(=O)O)cn3-c2ccc(O)cc2)C[C@H]1N
< 0.05 µg/mL	C[C@@H]1C[C@H](N)CN1c1cc2c(cc1F)c(=O)c(C(=O)O)cn2-c1ccc(O)cc1
< 0.05 µg/mL	O=C(O)c1cn(-c2ccc(O)cc2)c2cc(N3CC4CCCNC4C3)c(F)cc2c1=O (stereo not drawn)
< 0.05 µg/mL	COc1c(N2C[C@@H](C)[C@H](N)C2)c(F)cc2c(=O)c(C(=O)O)cn(-c3ccc(O)cc3)c12
< 0.05 µg/mL	N[C@@H]1[C@H]2CN(c3nc4c(cc3F)c(=O)c(C(=O)O)cn4-c3ccc(O)cc3)C[C@@H]12
< 0.05 µg/mL	N[C@@H]1CN(c2cc3c(cc2F)c(=O)c(C(=O)O)cn3-c2ccc(O)cc2)CC12CC2
< 0.05 µg/mL	CN1CCC2CN(c3nc4c(cc3F)c(=O)c(C(=O)O)cn4-c3ccc(O)cc3)CC21 (stereo not drawn)
< 0.05 µg/mL	C[C@H](N)[C@H]1CCN(c2nc3c(cc2F)c(=O)c(C(=O)O)cn3-c2ccc(O)cc2)C1
< 0.05 µg/mL	O=C(O)c1cn(-c2ccc(O)cc2)c2cc(N3CCNCC3)c(F)cc2c1=O
< 0.05 µg/mL	CC1CNCCN1c1nc2c(cc1F)c(=O)c(C(=O)O)cn2-c1ccc(O)cc1 (stereo not drawn)
< 0.05 µg/mL	NCC1CCN(c2nc3c(cc2F)c(=O)c(C(=O)O)cn3-c2ccc(O)cc2)C1 (stereo not drawn)
< 0.05 µg/mL	O=C(O)c1cn(-c2ccc(O)cc2)c2nc(N3CC4CCCNC4C3)c(F)cc2c1=O (stereo not drawn)
